One assay addresses human recombinant PLK4 (Homo sapiens (Human), UniProt O00444). Briefly: PLK4 Biochemical Assay (ADP-Glo). The following applies: 0.5 nM PLK4, 8.0 µM ATP, 4.7 µM MBP, 6 hours at RT. The method in brief:
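Recombinant human PLK4 (added at 1.0 nM) was preincubated 15 min at RT with compound in 50 mM HEPES pH 7.5, 10 mM MgCl2, 1 mM EGTA, 1 mM DTT, 0.01% Brij-35, 0.01% BSA. ADP formed was detected by ADP-Glo luminescence (40 min ATP depletion, 30 min detection). IC50 came from a four-parameter fit.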
A general note: In ADP-Glo the light output rises with the ADP produced.

In the next assay the test system is CHP-134 cells. Briefly: CHP134 CellTiter-Glo (CTG) Assay. The following applies: Homo sapiens, CHP-134, 120 h, 5 days, viable cells by CellTiter-Glo. The assay is classed as cell-based. The method in brief: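 CHP-134 cells seeded at 200 cells/well for 16 h, then given nine 1:3 serial dilutions in quadruplicate at 37° C, 5% CO2. Viable cells measured by CellTiter-Glo luminescence after 5 days; IC50 calculated from curves.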
On the technique in general: In ATP-based viability assays light output follows the ATP content of the culture.

Assay [1] concerns the target human recombinant Aurora A (Homo sapiens (Human), UniProt O14965). The assay is described as follows: Aurora A Kinase Biochemical Assay (ADP-Glo). The following applies: ratio of Aurora A IC50 to PLK4 IC50 (selectivity).
The target of assay [2] is human recombinant Aurora B (Homo sapiens (Human), UniProt Q96GD4). Briefly: Aurora B Kinase Biochemical Assay (ADP-Glo). The note with it: ratio of Aurora B IC50 to PLK4 IC50 (selectivity). Put shortly: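 Recombinant human Aurora B (20 nM in pH 7.5 HEPES buffer with MgCl2, EGTA, DTT, Brij-35, BSA) preincubated with compound 15 min at RT. ADP formed quantified by ADP-Glo luminescence after ATP depletion (40 min) and detection (30 min). IC50 from four-parameter non-linear regression.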
Sequence of human recombinant Aurora B (Q96GD4 whole entry): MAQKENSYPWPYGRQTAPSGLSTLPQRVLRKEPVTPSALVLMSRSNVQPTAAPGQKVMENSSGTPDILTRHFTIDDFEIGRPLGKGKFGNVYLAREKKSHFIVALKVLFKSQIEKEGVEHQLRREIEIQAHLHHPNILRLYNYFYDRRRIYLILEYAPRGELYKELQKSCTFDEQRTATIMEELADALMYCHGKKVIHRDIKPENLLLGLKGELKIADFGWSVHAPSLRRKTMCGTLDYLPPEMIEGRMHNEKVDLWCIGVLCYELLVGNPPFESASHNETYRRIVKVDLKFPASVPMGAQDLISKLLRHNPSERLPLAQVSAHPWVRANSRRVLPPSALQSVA

Sequence of human recombinant Aurora A (O14965 whole entry): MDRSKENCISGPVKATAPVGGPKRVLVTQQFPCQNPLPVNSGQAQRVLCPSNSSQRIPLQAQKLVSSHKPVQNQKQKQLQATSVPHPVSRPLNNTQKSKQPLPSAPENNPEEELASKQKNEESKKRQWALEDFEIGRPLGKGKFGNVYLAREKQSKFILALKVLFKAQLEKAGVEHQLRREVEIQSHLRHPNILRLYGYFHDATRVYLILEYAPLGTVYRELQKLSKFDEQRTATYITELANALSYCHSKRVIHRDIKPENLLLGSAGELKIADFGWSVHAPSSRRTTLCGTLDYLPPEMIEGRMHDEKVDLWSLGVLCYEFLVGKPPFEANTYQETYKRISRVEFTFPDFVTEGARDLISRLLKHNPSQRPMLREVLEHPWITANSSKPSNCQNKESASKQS
Sequence of human recombinant PLK4 (O00444 whole entry): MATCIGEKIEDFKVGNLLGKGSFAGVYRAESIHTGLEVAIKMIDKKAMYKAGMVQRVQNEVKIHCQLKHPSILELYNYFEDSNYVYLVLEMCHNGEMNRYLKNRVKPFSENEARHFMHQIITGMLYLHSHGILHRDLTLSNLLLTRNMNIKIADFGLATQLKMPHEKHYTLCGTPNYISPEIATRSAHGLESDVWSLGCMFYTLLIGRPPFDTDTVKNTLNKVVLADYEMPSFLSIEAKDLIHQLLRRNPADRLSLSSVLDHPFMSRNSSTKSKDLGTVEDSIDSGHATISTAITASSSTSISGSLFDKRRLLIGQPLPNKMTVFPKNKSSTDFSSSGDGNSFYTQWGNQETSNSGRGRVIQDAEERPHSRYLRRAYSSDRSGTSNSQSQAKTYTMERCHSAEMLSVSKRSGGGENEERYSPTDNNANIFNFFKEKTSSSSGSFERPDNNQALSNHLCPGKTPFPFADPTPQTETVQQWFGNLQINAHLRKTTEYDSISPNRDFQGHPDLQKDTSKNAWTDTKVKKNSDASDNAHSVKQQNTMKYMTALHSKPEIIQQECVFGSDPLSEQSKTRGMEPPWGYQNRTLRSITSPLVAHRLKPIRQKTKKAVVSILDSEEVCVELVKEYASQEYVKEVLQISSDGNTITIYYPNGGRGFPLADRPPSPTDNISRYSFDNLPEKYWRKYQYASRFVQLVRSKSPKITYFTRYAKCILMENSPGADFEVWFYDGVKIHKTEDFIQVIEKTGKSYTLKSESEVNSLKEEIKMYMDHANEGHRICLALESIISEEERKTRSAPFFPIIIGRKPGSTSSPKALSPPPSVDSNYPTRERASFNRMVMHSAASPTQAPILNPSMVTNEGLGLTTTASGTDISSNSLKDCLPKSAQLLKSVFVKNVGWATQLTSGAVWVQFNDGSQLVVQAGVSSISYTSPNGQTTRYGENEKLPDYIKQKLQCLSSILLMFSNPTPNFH

What is called IC50 is the concentration at which inhibition is half-maximal. In the case of `COc1ccc2c(c1)[C@]1(C[C@H]1c1ccc3c(Nc4ncnc(N5CCOCC5)c4OC(F)F)n[nH]c3c1)C(=O)N2` [Example 109, (1R,2S)-2-(3-{[5-(difluoromethoxy)-6-(morpholin-4-yl)pyrimidin-4-yl]amino}-lH-indazol-6-yl)-5′-methoxyspiro[cyclopropane-1,3′-indol]-2′(1′H)-one], the IC50 on human recombinant PLK4 is 6.76 nM; in the assay with CHP-134 cells, 1870 nM. Further, the “[Aurora A IC50 (nM)]/[PLK4 IC50 (nM)]” value in assay [1] is 50000. Moreover, in assay [2], the “[Aurora B IC50 (nM)]/[PLK4 IC50 (nM)]” value was 11070.
Regarding `COc1ccc2c(c1)[C@]1(C[C@H]1c1ccc3c(Nc4ncnc(N5CCOCC5)c4OC)n[nH]c3c1)C(=O)N2C` [Example 113, (1R,2S)-5′-methoxy-2-(3-{[5-methoxy-6-(morpholin-4-yl)pyrimidin-4-yl]amino}-1H-indazol-6-yl)-1′-methylspiro[cyclopropane-1,3′-indol]-2′(1′H)-one], the IC50 on human recombinant PLK4 turned out to be 10.7 nM; with CHP-134 cells, 2520 nM. Besides, in assay [1], the “[Aurora A IC50 (nM)]/[PLK4 IC50 (nM)]” value is 1888.2629. Also, the “[Aurora B IC50 (nM)]/[PLK4 IC50 (nM)]” value in assay [2] was 231.7370.
Regarding `COc1ccc2c(c1)[C@]1(C[C@H]1c1ccc3c(Nc4nc(N5CC(O)C5)ncc4OC)n[nH]c3c1)C(=O)N2` [Example 114], the IC50 at human recombinant PLK4 amounted to 2.09 nM; in the assay on CHP-134 cells, 10000 nM. Moreover, in assay [1], the “[Aurora A IC50 (nM)]/[PLK4 IC50 (nM)]” value is recorded as 590.1482. For the same compound, the “[Aurora B IC50 (nM)]/[PLK4 IC50 (nM)]” value in assay [2] amounted to 811.5734.
The corresponding values for `COc1ccc2c(c1)[C@]1(C[C@H]1c1ccc3c(Nc4cncc(C5COC5)n4)n[nH]c3c1)C(=O)N2` [Example 115, (1R,2S)-5′-methoxy-2-(3-{[6-(oxetan-3-yl)pyrazin-2-yl]amino}-1H-indazol-6-yl)spiro[cyclopropane-1,3′-indol]-2′(1′H)-one] are 8.04 nM, 3460 nM, 132.6035 and 186.3415.
Consider `COc1ccc2c(c1)[C@]1(C[C@H]1c1ccc3c(Nc4nc(C5CC5)ncc4Cl)n[nH]c3c1)C(=O)N2` [Example 116, (1R,2S)-2-(3-((5-chloro-2-cyclopropylpyrimidin-4-yl)amino)-1H-indazol-6-yl)-5′-methoxyspiro[cyclopropane-1,3′-indolin]-2′-one], for which the IC50 on human recombinant PLK4 was 2.89 nM; with CHP-134 cells, 134 nM. The “[Aurora A IC50 (nM)]/[PLK4 IC50 (nM)]” value in assay [1] was 788.5813. The “[Aurora B IC50 (nM)]/[PLK4 IC50 (nM)]” value in assay [2] worked out at 483.7370.
As to `COc1ccc2c(c1)[C@]1(C[C@H]1c1ccc3c(Nc4nc(C(C)C)ncc4Cl)n[nH]c3c1)C(=O)N2` [Example 117, (1R,2S)-2-(3-{[5-chloro-2-(propan-2-yl)pyrimidin-4-yl]amino}-1H-indazol-6-yl)-5′-methoxyspiro[cyclopropane-1,3′-indol]-2′(1′H)-one], the results for the IC50 on human recombinant PLK4 and with CHP-134 cells were 2.32 nM and 109 nM, respectively. Further, in assay [1], the “[Aurora A IC50 (nM)]/[PLK4 IC50 (nM)]” value is listed as 1388.1947. Moreover, the “[Aurora B IC50 (nM)]/[PLK4 IC50 (nM)]” value in assay [2] was 906.5058.
The corresponding values for `COc1ccc2c(c1)[C@]1(C[C@H]1c1ccc3c(Nc4nc(C5COC5)ncc4Cl)n[nH]c3c1)C(=O)N2` [Example 118, (1R,2S)-2-(3-{[5-chloro-2-(oxetan-3-yl)pyrimidin-4-yl]amino}-1H-indazol-6-yl)-5′-methoxyspiro[cyclopropane-1,3′-indol]-2′(1′H)-one] are 7.32 nM, 2360 nM, 457.0413 and 902.3357.
For the compound `COc1ccc2c(c1)[C@]1(C[C@H]1c1ccc3c(Nc4nc(C5COC5)ncc4OC)n[nH]c3c1)C(=O)N2` [Example 119, (1R,2S)-5′-methoxy-2-(3-{[5-methoxy-2-(oxetan-3-yl)pyrimidin-4-yl)amino}-1H-indazol-6-yl)spiro[cyclopropane-1,3′-indol]-2′(1′H)-one], the half-inhibitory concentration (IC50) on human recombinant PLK4 was determined as 1.59 nM; in the assay with CHP-134 cells, 2660 nM. In addition, the “[Aurora A IC50 (nM)]/[PLK4 IC50 (nM)]” value in assay [1] was 870.2770. In addition, the “[Aurora B IC50 (nM)]/[PLK4 IC50 (nM)]” value in assay [2] was found to be 973.5516.
As to `COc1ccc2c(c1)[C@]1(C[C@H]1c1ccc3c(Nc4nc(N5CC(O)C5)ncc4Cl)n[nH]c3c1)C(=O)N2` [Example 120, (1R,2S)-2-(3-{[5-chloro-2-(3-hydroxyazetidin-1-yl)pyrimidin-4-yl]amino}-1H-indazol-6-yl)-5′-methoxyspiro[cyclopropane-1,3′-indol]-2′(1′H)-one], the IC50 came to 3.81 nM at human recombinant PLK4 and 10000 nM with CHP-134 cells. In assay [1], the “[Aurora A IC50 (nM)]/[PLK4 IC50 (nM)]” value amounted to 444.0366. Moreover, in assay [2], the “[Aurora B IC50 (nM)]/[PLK4 IC50 (nM)]” value is 684.6657.
Consider `COc1ccc2c(c1)[C@]1(C[C@H]1c1ccc3c(Nc4nc(C)ncc4OC(F)F)n[nH]c3c1)C(=O)N2` [Example 121, (1R,2S)-2-(3-{[5-(difluoromethoxy)-2-methylpyrimidin-4-yl]amino}-1H-indazol-6-yl)-5′-methoxyspiro[cyclopropane-1,3′-indol]-2′(1′H)-one], for which the half-maximal inhibitory concentration (IC50) at human recombinant PLK4 came to 1.79 nM; with CHP-134 cells, 5320 nM. Further, the “[Aurora A IC50 (nM)]/[PLK4 IC50 (nM)]” value in assay [1] amounted to 875.6967. Also, in assay [2], the “[Aurora B IC50 (nM)]/[PLK4 IC50 (nM)]” value came to 230.8807.
Regarding `COc1ccc2c(c1)[C@]1(C[C@H]1c1ccc3c(Nc4nc(C)ncc4OC)n[nH]c3c1F)C(=O)N2` [Example 123, (1R,2R)-2-{7-fluoro-3-[(5-methoxy-2-methylpyrimidin-4-yl)amino]-1H-indazol-6-yl}-5′-methoxyspiro[cyclopropane-1,3′-indol]-2′(1′H)-one], the IC50 was 4.8 nM on human recombinant PLK4 and 2110 nM in the assay on CHP-134 cells. Besides, the “[Aurora A IC50 (nM)]/[PLK4 IC50 (nM)]” value in assay [1] amounted to 667.5698. In addition, the “[Aurora B IC50 (nM)]/[PLK4 IC50 (nM)]” value in assay [2] stood at 84.1.
Taken in the same sequence, the figures for `COc1ccc2c(c1)[C@]1(C[C@H]1c1ccc3c(Nc4nc(C(C)C)ncc4OC)n[nH]c3c1)C(=O)N2` [Example 125, (1R,2S)-5′-methoxy-2-(3-{[5-methoxy-2-(propan-2-yl)pyrimidin-4-yl]amino}-1H-indazol-6-yl)spiro[cyclopropane-1,3′-indol]-2′(1′H)-one] were 0.833 nM, 160 nM, 1323.9707 and 495.7388.
Consider `COc1cnc(C)nc1Nc1n[nH]c2cc([C@@H]3C[C@@]34C(=O)Nc3ccc(C)cc34)ccc12` [Example 126, (1R,2S)-2-{3-[(5-methoxy-2-methylpyrimidin-4-yl)amino]-1H-indazol-6-yl}-5′-methylspiro[cyclopropane-1,3′-indol]-2′(1′H)-one], for which the IC50 at human recombinant PLK4 was 9.01 nM; in the assay on CHP-134 cells, 459 nM. In addition, the “[Aurora A IC50 (nM)]/[PLK4 IC50 (nM)]” value in assay [1] was found to be 66.2192. The “[Aurora B IC50 (nM)]/[PLK4 IC50 (nM)]” value in assay [2] was 92.0568.
Taken in the same sequence, the figures for `COc1ccc2c(c1)[C@]1(C[C@H]1c1ccc3c(Nc4nc(C(C)C)ncc4OC(F)F)n[nH]c3c1)C(=O)N2` [Example 128, (1R,2S)-2-(3-{[5-(difluoromethoxy)-2-(propan-2-yl)pyrimidin-4-yl]amino}-1H-indazol-6-yl)-5′-methoxyspiro[cyclopropane-1,3′-indol]-2′(1′H)-one] were 2.89 nM, 1490 nM, 2750.2597 and 1337.0280.

The values above are taken from US20230365537A1, “POLO LIKE KINASE 4 INHIBITORS” (ORIC Pharmaceuticals, Inc., priority 2021, published 2023).
